Experimental data taken from US9066912B2, “Drug-enhanced adhesion prevention” (Ethicon, Inc., priority 2003, dated 2015).
“And” between values parts separate entries of the source, which are not always exact repeats. Identical values can stand only once. “Also recorded” adds a separate entry of the source.

Assays:
[1] = Necropsy observations in the rabbit sidewall adhesion studies; format: in vivo; set-up: key to mild inflammation with granulomas (mark at adhesion tenacity): *: did have mild inflammation with the presence of granulomas; details: for mild inflammation with granulomas (mark at adhesion tenacity): individual animals, also seen in vehicle treated animals
Description: (§1) In the peritoneal sidewall model, rabbits were pre-anesthetized with 1.2 mg/kg acetylpromazine and anesthetized with a mixture of 55 mg/kg ketamine hydrochloride and 5 mg/kg xylazine intramuscularly. Following preparation for sterile surgery, a midline laparotomy was performed. A 3 cm×5 cm area of peritoneum and transversus abdominis muscle was removed on the right lateral abdominal wall. The cecum was exteriorized and digital pressure was exerted to create subserosal hemorrhages (trauma and loss of blood flow) over all cecal surfaces. The cecum was then returned to its normal anatomic position. Tranilast contained in a delivery vehicle as described below was placed in an Alzet® miniosmotic pump (Alza Corporation, Palo Alto, Calif.) to allow continuous release of the molecule through the postsurgical interval. The Alzet miniosmotic pump was placed in the subcutaneous space and a delivery tube connected the pump with the site of injury at the sidewall. Only the delivery vehicle was placed in the pump of control rabbits. The abdominal wall and skin were closed in a standardized manner.
The animals whose adhesion tenacities are marked by (*) did have mild inflammation with the presence of granulomas. The variability in the results may be due to a localized inflammation in […]. As the response was present in the vehicle treated animals, the inflammatory response may be due to prolonged administration of this vehicle. Therefore, the efficacy results might have been underestimated in light of the possible presence of a prolonged inflammatory response.

[2] = test system: adhesion formation after peritoneal surgery (sidewall injury); test: Rabbit peritoneal sidewall adhesion model; format: in vivo; set-up: key to Adhesion Tenacity: 0: No adhesions; 1: mild, easily dissectible adhesions; 2: moderate adhesions; non-dissectible, does not tear organ; 3: dense adhesions; non-dissectible, tears when removed; details: for mean adhesion area percentage: placebo control 100±0; for Adhesion Area Percentage / Adhesion Tenacity: individual animals; for efficacy in reducing post-operative adhesions: summary of the examples
Description: Multiple studies to confirm the efficacy of Tranilast in the reduction or inhibition of adhesion formation after peritoneal surgery were performed using a sidewall adhesion model.
as §1
After 21 days, the rabbits were sacrificed and the percentage of the area of the sidewall injury that was involved in adhesions was determined. In addition, the tenacity of the adhesion formed was scored using a system as follows:
With the sidewall model, an initial score to represent the overall extent of adhesions is given (0 to 3).
The percentage of a surface of the sidewall involved in adhesions to various organs are given in the tables below to quantify the overall adhesion score. A reduction in the area and the tenacity of the adhesions would be considered beneficial and efficacious.
The efficacy of Tranilast in inhibiting adhesion formation was evaluated using a single pump, filled with one of three dosage levels of mg of Tranilast per ml of delivery vehicle (0.625 mg/ml, 6.25 mg/ml or 62.5 mg/ml), or placebo control (70% Polyethylene glycol 400, 20% Tween 80, 10% N,N-dimethylacetamide (DMAC)). The drug was placed in an Alzet miniosmotic pump and delivered over 7 days at a rate of 10 microliter/hr. The animals were sacrificed after 21 days.
Following the procedure described in Example 1, Tranilast, at one of three dosage levels (0.625, 6.25 or 62.5 mg Tranilast/ml vehicle), and a placebo control (70% Polyethylene glycol 400, 20% Tween 80, 10% N,N-dimethylacetamide (DMAC)) was delivered over 7 days at a rate of 10 microliter/hr.
After 7 days, animals received anesthesia and a small incision was made in the skin after preparation for aseptic surgery. The pump was then replaced with a new pump and drug or placebo was delivered over a second period of 7 days at a rate of 10 microliter/hr.
After 7 more days, some of the animals received anesthesia and a second small incision was made in the skin after preparation for aseptic surgery. Again, the pump was replaced with another new pump and drug or placebo was delivered over a third period of 7 days at a rate of 10 microliter/hr.
All animals were sacrificed after 21 days.
Groups of animals received either oral dosing, or local delivery of Tranilast, or placebo control. In the animals that received local delivery, a single pump, filled with placebo (70% Polyethylene glycol 400, 20% Tween 80, 10% N,N-dimethylacetamide (DMAC)), or Tranilast (6.25 mg/ml), at 10 microliter/hour over 7 days starting with the day of surgery, was placed in the subcutaneous space. Certain animals received oral dosing (approximately 60 mg/kg). Oral dosing was either pre-operatively (once a day for the 5 days prior to surgery, with the last dose given 2 hours prior to surgery) or, in one group, pre- and post-operatively (from day 2 through day 21 post-surgery). For further clarification, the treatment groups are shown below.

[3] = test system: TGF-β secretion, collagen synthesis, or cellular proliferation; details: any of the cellular assays tested to date, e.g. TGF-β secretion; cited from earlier work
[4] = Example 2, 2 and 3 week local dosing
[5] = Example 3, oral and/or local dosing
[6] = Example 1, 0.625 mg/ml local via pump, 10 microliter/hr over 7 days, sacrifice after 21 days
[7] = Example 1, 6.25 mg/ml local via pump, 10 microliter/hr over 7 days, sacrifice after 21 days
[8] = Example 1, 62.5 mg/ml local via pump, 10 microliter/hr over 7 days, sacrifice after 21 days
[9] = Example 3, oral 60 mg/kg 5 days pre-operatively and 6.25 mg/ml topically (pump, 7 days), 60 mg/kg
[10] = Example 3, oral 60 mg/kg, 5 days pre-operatively and 21 days post-operatively, no pump

With `COc1ccc(C=CC(=O)Nc2ccccc2C(=O)O)cc1OC` [Tranilast, N-(3,4-dimethoxycinnamoyl) anthranilic acid] the “clinical signs at necropsy” value ([1]; Example 1, 1 week local dosing) was “no clinical signs”, the “inflammation or granulomas at the site of administration” value (from here on “inflammation or granulomas at the site”) ([1]; Example 1, 1 week local dosing) was “no inflammation or granulomas were observed” and the “clinical signs at necropsy” value [1, 4] was “no clinical signs”. The “inflammation or granulomas at the site” value [1, 4] was “no inflammation or granulomas were observed grossly at the site of administration in the majority of animals”, the “mild inflammation with granulomas (mark at adhesion tenacity)” value (shortened to “mild inflammation with granulomas”) ([1]; Example 2, 0.625 mg/ml local for 2 weeks) was “*” and the “mild inflammation with granulomas” value ([1]; Example 2, 6.25 mg/ml local for 2 weeks) was “*”. For the same compound, the “mild inflammation with granulomas” value ([1]; Example 2, 6.25 mg/ml local for 3 weeks) was “*”, the “mild inflammation with granulomas” value ([1]; Example 2, 62.5 mg/ml local for 2 weeks) was “*” and the “mild inflammation with granulomas” value ([1]; Example 2, 62.5 mg/ml local for 3 weeks) was “*”. The “clinical signs at necropsy” value [1, 5] was “no clinical signs”, the “inflammation or granulomas at the site” value [1, 5] was “no inflammation or granulomas were observed” and the “mean adhesion area percentage” value ([2]; Example 1, 0.625 mg/ml local, 1 week dosing, p=0.078) was 82.9±8.1%. For the same compound, the “mean adhesion area percentage” value ([2]; Example 1, 6.25 mg/ml local, 1 week dosing, p<0.001) was 67.1±7.1%, the “mean adhesion area percentage” value ([2]; Example 1, 62.5 mg/ml local, 1 week dosing, p=0.065) was 78.6±9.6% and the “tenacity of the adhesions formed (analysis of variance on the ranks)” value (“tenacity of the adhesions formed” for short) ([2]; Example 1, 1 week local dosing, all doses) was “significant reductions in the tenacity of the adhesions”. The “area of adhesion formation relative to the control” value ([2]; Example 1, 1 week local dosing, all doses (0.625, 6.25, 62.5 mg/ml)) was “reduced the area of adhesion formation”, the “Adhesion Area Percentage” value [2, 6] was 100% (4×) and 60% (3×) and the “Adhesion Tenacity” value [2, 6] was 2 (3×) and 1 (3×) and 3. The “Adhesion Area Percentage” value [2, 7] was 70% (2×) and 100% and 80% and 50% (3×), the “Adhesion Tenacity” value [2, 7] was 1 (5×) and 2 (2×) and the “Adhesion Area Percentage” value [2, 8] was 100% (3×) and 70% (2×) and 30% and 80%. The “Adhesion Tenacity” value [2, 8] was 2 (3×) and 1 (3×) and 3, the “mean adhesion area percentage” value ([2]; Example 2, 0.625 mg/ml local, 2 weeks) was 75.1±14.5% and the “mean adhesion area percentage” value ([2]; Example 2, 0.625 mg/ml local, 3 weeks) was 48.6±8.8%. For the same compound, the “mean adhesion area percentage” value ([2]; Example 2, 6.25 mg/ml local, 2 weeks) was 78.8±12.0%, the “mean adhesion area percentage” value ([2]; Example 2, 6.25 mg/ml local, 3 weeks) was 77.1±12.1% and the “mean adhesion area percentage” value ([2]; Example 2, 62.5 mg/ml local, 2 weeks) was 72.5±9.8%. For the same compound, the “mean adhesion area percentage” value ([2]; Example 2, 62.5 mg/ml local, 3 weeks) was 64.3±10.9%, the “tenacity of the adhesions formed” value ([2]; Example 2, 2 and 3 week local dosing, all doses) was “significant reductions in the tenacity of the adhesions” and the “adhesion formation relative to placebo control” value ([2]; Example 2, 2 and 3 week local dosing, significant at the high dose at two weeks and at all doses at 3 weeks) was “reductions in adhesion formation at all doses of drug and at both time points”. For the same compound, the “Adhesion Area Percentage” value ([2]; Example 2, 0.625 mg/ml local via pump for 2 weeks (pump replaced at day 7), sacrifice after 21 days) was 50% and 100% (4×) and 80% and 0%, the “Adhesion Tenacity” value ([2]; Example 2, 0.625 mg/ml local via pump for 2 weeks, sacrifice after 21 days) was 1 (5×) and 0 and 2 and the “Adhesion Area Percentage” value ([2]; Example 2, 0.625 mg/ml local via pump for 3 weeks (pump replaced at days 7 and 14), sacrifice after 21 days) was 10% and 50% (3×) and 80% and 30% and 70%. For the same compound, the “Adhesion Tenacity” value ([2]; Example 2, 0.625 mg/ml local via pump for 3 weeks, sacrifice after 21 days) was 1 (6×) and 2, the “Adhesion Area Percentage” value ([2]; Example 2, 6.25 mg/ml local via pump for 2 weeks (pump replaced at day 7), sacrifice after 21 days) was 100% (4×) and 70% and 0% and 80% (2×) and the “Adhesion Tenacity” value ([2]; Example 2, 6.25 mg/ml local via pump for 2 weeks, sacrifice after 21 days) was 1 (6×) and 0 and 2. For the same compound, the “Adhesion Area Percentage” value ([2]; Example 2, 6.25 mg/ml local via pump for 3 weeks (pump replaced at days 7 and 14), sacrifice after 21 days) was 70% and 100% (4×) and 20% and 50%, the “Adhesion Tenacity” value ([2]; Example 2, 6.25 mg/ml local via pump for 3 weeks, sacrifice after 21 days) was 1 (5×) and 2 (2×) and the “Adhesion Area Percentage” value ([2]; Example 2, 62.5 mg/ml local via pump for 2 weeks (pump replaced at day 7), sacrifice after 21 days) was 40% and 80% and 100% (3×) and 30% and 60% and 70%. The “Adhesion Tenacity” value ([2]; Example 2, 62.5 mg/ml local via pump for 2 weeks, sacrifice after 21 days) was 1 (6×) and 2 (2×), the “Adhesion Area Percentage” value ([2]; Example 2, 62.5 mg/ml local via pump for 3 weeks (pump replaced at days 7 and 14), sacrifice after 21 days) was 50% (2×) and 40% and 30% and 100% (2×) and 80% and the “Adhesion Tenacity” value ([2]; Example 2, 62.5 mg/ml local via pump for 3 weeks, sacrifice after 21 days) was 1 (6×) and 2. The “mean adhesion area percentage” value ([2]; Example 3, 6.25 mg/ml local only, p=0.039) was 72.9±11.7%, the “tenacity of the adhesions formed” value ([2]; Example 3, all groups of animals that received the drug) was “significant reductions in the tenacity of the adhesions” and the “area of adhesion formation” value ([2]; Example 3, all groups that received local delivery (Tables 13 and 16)) was “reductions in the area of adhesion formation”. The “Adhesion Tenacity” value ([2]; Example 3, 6.25 mg/ml local via pump over 7 days, no oral dosing) was 1, the “Adhesion Area Percentage” value ([2]; Example 3, 6.25 mg/ml local via pump, 10 microliter/hour over 7 days, no oral dosing) was 100% (2×) and 60% and 80% (3×) and 10% and the “Adhesion Area Percentage” value [2, 9] was 80% (2×) and 0% and 50% and 60% and 10%. The “Adhesion Tenacity” value [2, 9] was 1 (5×) and 0, the “Adhesion Area Percentage” value ([2]; Example 3, oral 60 mg/kg 5 days pre-operatively and placebo topically (pump)) was 100% and the “Adhesion Tenacity” value ([2]; Example 3, oral 60 mg/kg 5 days pre-operatively and placebo topically (pump), 60 mg/kg) was 2 (4×) and 1 (2×). The “Adhesion Area Percentage” value [2, 10] was 100%, the “Adhesion Tenacity” value [2, 10] was 2 and the “area of adhesion formation / inhibition of adhesion formation” value ([2]; Example 3, oral dosing alone, pre-operatively or pre- and post-operatively (Tables 14 and 15)) was “did not reduce the area of adhesion formation; also recorded: no inhibition of adhesion formation”. The “mean adhesion area percentage” value ([2]; Example 3, oral pre-operative and post-operative, no local) was 100±0%, the “mean adhesion area percentage” value ([2]; Example 3, oral pre-operative with topical 6.25 mg/ml, p=0.002) was 46.7±14.1% and the “mean adhesion area percentage” value ([2]; Example 3, oral pre-operative with topical placebo) was 100±0%. For the same compound, the “inhibition of adhesion formation” value ([2]; Example 3, pre-operative oral administration in conjunction with local administration) was “did result in inhibition of adhesion formation”, the “efficacy in reducing post-operative adhesions” value ([2]; delivered to the site via a local administrative route) was “efficacious” and the “efficacy in reducing post-operative adhesions” value ([2]; delivered via a systemic route) was “no efficacy was seen”. The “IC50 values in cellular assays” value [3] was “does not exhibit potent IC50 values”.
